These results are taken from patent US20170217946A1, “AMINO-SUBSTITUTED ISOXAZOLES” (Bayer Pharma Aktiengesellschaft, priority 2014, published 2017).

Test [1] concerns the target T1, human Bub1 (Homo sapiens, UniProt O43683).
T1 construct: catalytic domain of human Bub1 (amino acids 704-1085); His6 (N); made in house; host or cells: insect cells (Hi5)
The test can be described thus: Bub1 kinase assay (TR-FRET). It counts as biochemical. As to conditions: 10 μM ATP. From the text: Bub1-inhibitory activity of compounds of the present invention was quantified employing the Bub1 TR-FRET assay as described in the following paragraphs.
N-terminally His6-tagged recombinant catalytic domain of human Bub1 (amino acids 704-1085), expressed in insect cells (Hi5) and purified by Ni-NTA affinity chromatography and subsequent size exclusion chromatography, was used as enzyme. As substrate for the kinase reaction the biotinylated peptide biotin-Ahx-VLLPKKSFAEPG (C-terminus in amid form) was used which can be purchased e.g. form the company Biosyntan (Berlin, Germany).
For the assay 50 nl of a 100 fold concentrated solution of the test compound in DMSO was pipetted into a black low volume 384 well microtiter plate (Greiner Bio-One, Frickenhausen, Germany), 2 μl of a solution of Bub1 in aqueous assay buffer [50 mM Tris/HCl pH 7.5, 10 mM magnesium chloride (MgCl2), 200 mM potassium chloride (KCl), 1.0 mM dithiothreitol (DTT), 0.1 mM sodium ortho-vanadate, 1% (v/v) glycerol, 0.01% (w/v) bovine serum albumine (BSA), 0.005% (v/v) Trition X-100 (Sigma), 1× Complete EDTA-free protease inhibitor mixture (Roche)] were added and the mixture was incubated for 15 min at 22° C. to allow pre-binding of the test compounds to the enzyme before the start of the kinase reaction. Then the kinase reaction was started by the addition of 3 μl of a solution of adenosine-tri-phosphate (ATP, 16.7 μM=>final conc. in the 5 μl assay volume is 10 μM) and substrate (1.67 μM=>final conc. in the 5 μl assay volume is 1 μM) in assay buffer and the resulting mixture was incubated for a reaction time of 60 min at 22° C. The concentration of Bub1 was adjusted depending of the activity of the enzyme lot and was chosen appropriate to have the assay in the linear range, typical concentrations were in the range of 200 ng/ml. The reaction was stopped by the addition of 5 μl of a solution of TR-FRET detection reagents (0.2 μM streptavidine-XL665 [Cisbio Bioassays, Codolet, France] and 1 nM anti-phosho-Serine antibody [Merck Millipore, cat. #35-001] and 0.4 nM LANCE EU-W1024 labeled anti-mouse IgG antibody [Perkin-Elmer, product no. AD0077, as an alternative a Terbium-cryptate-labeled anti-mouse IgG antibody from Cisbio Bioassays can be used]) in an aqueous EDTA-solution (50 mM EDTA, 0.2% (w/v) bovine serum albumin in 100 mM HEPES pH 7.5).
The resulting mixture was incubated 1 h at 22° C. to allow the formation of complex between the phosphorylated biotinylated peptide and the detection reagents. Subsequently the amount of phosphorylated substrate was evaluated by measurement of the resonance energy transfer from the Eu-chelate to the streptavidine-XL. Therefore, the fluorescence emissions at 620 nm and 665 nm after excitation at 350 nm was measured in a TR-FRET reader, e.g. a Rubystar or Pherastar (both from BMG Labtechnologies, Offenburg, Germany) or a Viewlux (Perkin-Elmer). The ratio of the emissions at 665 nm and at […] was taken as the measure for the amount of phosphorylated substrate. The data were normalised (enzyme reaction without inhibitor=0% inhibition, all other assay components but no enzyme=100% inhibition).
(In general: In TR-FRET formats the signal depends on donor and acceptor labels being close together.)

Test [2] concerns HeLa cells. The test is described as follows: Proliferation assay (crystal violet). It counts as cell-based. As to conditions: Homo sapiens, 96 h, 4 days incubation, read-out: Inhibition of proliferation HeLa IC50. The method, then:
Cultivated tumor cells (cells were ordered from ATCC, except HeLa-MaTu and HeLa-MaTu-ADR, which were ordered from EPO-GmbH, Berlin) were plated at a density of 1000 to 5000 cells/well, depending on the growth rate of the respective cell line, in a 96-well multititer plate in 200 μL of their respective growth medium supplemented 10% fetal calf serum. After 24 hours, the cells of one plate (zero-point plate) were stained with crystal violet (see below), while the medium of the other plates was replaced by fresh culture medium (200 μl), to which the test substances were added in various concentrations (0 μM, as well as in the range of 0.001-10 μM; the final concentration of the solvent dimethyl sulfoxide was 0.5%). The cells were incubated for 4 days in the presence of test substances. Cell proliferation was determined by staining the cells with crystal violet: the cells were fixed by adding 20 μl/measuring point of an 11% glutaric aldehyde solution for 15 minutes at room temperature. After three washing cycles of the fixed cells with water, the plates were dried at room temperature. The cells were stained by adding 100 μl/measuring point of a 0.1% crystal violet solution (pH 3.0). After three washing cycles of the stained cells with water, the plates were dried at room temperature. The dye was dissolved by adding 100 μl/measuring point of a 10% acetic acid solution. Absorption was determined by photometry at a wavelength of 595 nm. The change of cell number, in percent, was calculated by normalization of the measured values to the absorption values of the zero-point plate (=0%) and the absorption of the untreated (0 μm) cells (=100%). The IC50 values were determined by means of a 4 parameter fit.

T1 sequence (O43683 704-1085): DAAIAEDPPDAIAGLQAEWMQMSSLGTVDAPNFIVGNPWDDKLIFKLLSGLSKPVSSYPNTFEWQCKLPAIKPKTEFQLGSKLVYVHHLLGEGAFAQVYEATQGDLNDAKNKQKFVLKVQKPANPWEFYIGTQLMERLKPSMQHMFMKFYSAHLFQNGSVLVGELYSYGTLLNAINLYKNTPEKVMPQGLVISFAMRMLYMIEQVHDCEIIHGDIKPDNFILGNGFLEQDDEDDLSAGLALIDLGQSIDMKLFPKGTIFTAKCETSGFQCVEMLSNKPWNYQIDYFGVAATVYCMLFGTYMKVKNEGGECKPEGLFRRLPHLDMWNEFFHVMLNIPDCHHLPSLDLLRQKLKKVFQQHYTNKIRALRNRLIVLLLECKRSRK

For the compound `COc1ccc(NC(=O)c2c(C)noc2Nc2cnc(C(F)(F)F)cn2)cn1` [Example 2c, N-(6-methoxypyridin-3-yl)-3-methyl-5-{[5-(trifluoromethyl)pyrazin-2-yl]amino}-1,2-oxazole-4-carboxamide], the IC50 is > 20 µM in test [1] and 2.7 µM in test [2].
Regarding `Cc1noc(Nc2cnc(C(F)(F)F)cn2)c1C(=O)Nc1ccc(OC[C@@H]2CCN(CC(F)F)C2)nc1` [Example 3a, N-(6-{[(3R)-1-(2,2-difluoroethyl)pyrrolidin-3-yl]methoxy}pyridin-3-yl)-3-methyl-5-{[5-(trifluoromethyl)pyrazin-2-yl]amino}-1,2-oxazole-4-carboxamide], the IC50 in test [1] was > 20 µM; in test [2], 3.4 µM.
On the same counts, the results for `Cc1noc(Nc2cnc(C(F)(F)F)cn2)c1C(=O)Nc1ccc(OC[C@@H]2CCN(CC(F)(F)F)C2)nc1` [Example 4a, 3-Methyl-N-(6-{[(3R)-1-(2,2,2-trifluoroethyl)pyrrolidin-3-yl]methoxy}pyridin-3-yl)-5-{[5-(trifluoromethyl)pyrazin-2-yl]amino}-1,2-oxazole-4-carboxamide] are > 20 µM and 2.8 µM.
Regarding `Cc1noc(Nc2cnc(C(F)(F)F)cn2)c1C(=O)Nc1ccc(OC[C@@H]2CCN(CCC(F)(F)F)C2)nc1` [Example 5a, 3-Methyl-5-{[5-(trifluoromethyl)pyrazin-2-yl]amino}-N-(6-{[(3R)-1-(3,3,3-trifluoro-propyl)pyrrolidin-3-yl]methoxy}pyridin-3-yl)-1,2-oxazole-4-carboxamide], the IC50 in test [1] was > 20 µM; in test [2], 3.3 µM.
Regarding `Cc1noc(Nc2cnc(C(F)(F)F)cn2)c1C(=O)Nc1ccc(OC[C@H]2CCN(CC(F)F)C2)nc1` [Example 7a, N-(6-{[(3S)-1-(2,2-difluoroethyl)pyrrolidin-3-yl]methoxy}pyridin-3-yl)-3-methyl-5-{[5-(trifluoromethyl)pyrazin-2-yl]amino}-1,2-oxazole-4-carboxamide], the IC50 is > 20 µM in test [1] and 4 µM in test [2].
On the same counts, the results for `Cc1noc(Nc2cnc(C(F)(F)F)cn2)c1C(=O)Nc1ccc(OC[C@H]2CCN(CC(F)(F)F)C2)nc1` [Example 8a, 3-Methyl-N-(6-{[(3S)-1-(2,2,2-trifluoroethyl)pyrrolidin-3-yl]methoxy}pyridin-3-yl)-5-{[5-(trifluoromethyl)pyrazin-2-yl]amino}-1,2-oxazole-4-carboxamide] are > 20 µM and 1.9 µM.
In the case of `Cc1noc(Nc2cnc(C(F)(F)F)cn2)c1C(=O)Nc1ccc(OC[C@H]2CCN(CCC(F)(F)F)C2)nc1` [Example 9a, 3-Methyl-5-{[5-(trifluoromethyl)pyrazin-2-yl]amino}-N-(6-{[(3S)-1-(3,3,3-trifluoro-propyl)pyrrolidin-3-yl]methoxy}pyridin-3-yl)-1,2-oxazole-4-carboxamide], the IC50 was > 20 µM in test [1] and 3.1 µM in test [2].
